Experimental data reported in patent US7662547B2, “Compositions and methods for detecting and treating HIV infections” (priority 2006, dated 2010).

How the values were obtained:
[1] = system: LFA-1 activation; experiment: LFA-1 activation staining (ICAM-1/Fc chimera, flow cytometry) of T cells activated by anti-CD3/CD28 bead; type: cell-based, human
Description: Half million CD4 T cells in 500 μl culture medium were treated with 5 μl of human IgG (Jackson Immuno Research, West Grove, Pa.) to block non-specific staining. Cells were stained with 10 μl (50 μg/ml) of human ICAM-1 Fc chimera (R&D System, Minneapolis, Minn.) for 20 min at 4° C. Cells were washed and blocked by 5 μl of mouse IgG (Jackson ImmunoResearch, West Grove, Pa.), followed by the addition of 10 μl of FITC labeled mouse anti-human Fc (Jackson ImmunoResearch, West Grove, Pa.), and incubated for 20 min at 4° C. Cells were finally washed and resuspended in 500 μl of 1% paraformaldehyde for flow cytometry.
Thus, the effect of Jas on T cell activity was determined. FIG. 3A illustrates inhibition of HIV-1 latent infection by Jas. Effects of Jas on LFA-1 activation also were tested. Jas treated or untreated resting T cells were activated by anti-CD3/CD28 bead and stained with human ICAM-1/Fc chimera and analyzed by flow cytometer. The effects of Jas on IL-2 secretion also were measured. […] Cells were treated with Jas for 2 hours, washed, infected with HIV-1 for 5 days, then activated by anti-CD3/CD28 bead. […] Following infection, cellular DNA was PCR amplified for viral late DNA and β-actin pseudogene. Cells were pre-activated with PHA plus IL-2, then treated and infected as in FIG. 3A. […] CEM-SS cell were treated and infected as in FIG. 3A. […]

[2] = system: HIV-1; experiment: HIV-1 latent infection of resting CD4 T cells, viral replication assay (p24 ELISA) after anti-CD3/CD28 activation; type: cell-based, HIV-1NL4-3; conditions: for inhibition of HIV replication in resting T cells: 2 hours before infection
Description: Virus stocks of the HIV-1NL4-3 (Adachi et al. J Virol 59(2), 284-91 (1986)) were prepared by transfection of HeLa cells with cloned proviral DNA as described in Wu and Marsh (2001). Supernatant was harvested at 48 hours, and filtered through a 0.45 μm nitrocellulose membrane. Virus titer (TCID50) was measured by infection of a Rev-CEM indicator cell line which was constructed through stable integration of a Rev-dependent GFP expression lentiviral vector into CEM-SS. […] For infection of resting CD4 T cells, viruses were first titrated to determine minimal levels detectable by p24 ELISA in replication assays described below. Unless specified, for most replication assays, 10^3.5 to 10^4.5 TCID50 units of HIV-1 were used to infect 10^6 cells. For infection procedure, CD4 T cells were incubated with the virus for 2 hours, then washed twice with medium to remove unbound virus. Infected cells were resuspended into fresh RPMI 1604 medium supplemented with 10% heat-inactivated fetal bovine serum, penicillin (50 U/ml) and streptomycin (50 μg/ml) at a density of 10^6 per ml and incubated for 5 days without stimulation. Cells were activated at day 5 with anti-CD3/CD28 magnetic beads at 4 beads per cells. For viral replication assay, 10% of infected cells were taken at 1, 3, 5, 6, 7, 8, 9 days post infection. Cells were pelleted and the supernatant was saved for p24 ELISA. Levels of p24 in the supernatant were measured by using Coulter HIV-1 p24 Assay Kit (Beckman Coulter, Inc. Miami, Fla.). Plates were kinetically read using ELx808 automatic microplate reader (Bio-Tek Instruments, Inc. Winooski, Vt.) at 630 nm.
Resting CD4 T cells were treated with pertussis toxin (Sigma, St. Louis, Mo.) at a final concentration of 100 ng/ml for 2 hours, then infected with HIV-1. Following infection, cells were washed 2 to 3 times to remove cell-free virus and the inhibitor. Cells were treated with Jasplakinolide (Molecular Probes, Eugene, Oreg.) for 1 to 2 hours or Latrunculin A (Biomol, Plymouth Meeting, Pa.) for 5 minutes at various concentrations, washed twice with medium, then infected with HIV-1. Following infection, cells were washed twice to remove cell free virus. Cells were treated with 200 nM of Staurosporine (Biomol, Plymouth Meeting, Pa.) for 2 hours, then infected with HIV-1. Following infection, cells were washed twice to remove cell-free virus and the inhibitor.
Resting CD4 T cells were treated with S3 or Q104 for I to 2 hours, then infected with HIV-1. Following infection, cells were washed 2 to 3 times to remove cell-free virus and the peptides.
Effects of Jas on LFA-1 activation also were tested. Jas treated or untreated resting T cells were activated by anti-CD3/CD28 bead and stained with human ICAM-1/Fc chimera and analyzed by flow cytometer. The effects of Jas on IL-2 secretion also were measured. […] Cells were treated with Jas for 2 hours, washed, infected with HIV-1 for 5 days, then activated by anti-CD3/CD28 bead. […] Following infection, cellular DNA was PCR amplified for viral late DNA and β-actin pseudogene. Cells were pre-activated with PHA plus IL-2, then treated and infected as in FIG. 3A. […] CEM-SS cell were treated and infected as in FIG. 3A.

For C/C1=C\[C@H](C)C[C@H](C)OC(=O)C[C@H](c2ccc(O)cc2)NC(=O)[C@@H](Cc2c(Br)[nH]c3ccccc23)N(C)C(=O)[C@H](C)NC(=O)[C@@H](C)C1 [Jas, Jasplakinolide], the “inhibition of LFA-1 activation” value ([1]; 120 nM and below) was “no detectable inhibition”, the “inhibition of LFA-1 activation” value ([1]; 3 1μM Jas) was “greatly inhibited” and the “inhibition of HIV replication in resting T cells” value ([2]; 24 nM) was “partial inhibition”. For the same molecule, the “inhibition of HIV replication in resting T cells” value ([2]; 120 nM) was “Complete inhibition”, the “inhibition of HIV replication in resting T cells pre-stimulated with CD4/CXCR4 bead” value ([2]; 120 nM, pre-stimulation 2 beads/cell) was “completely abolished the inhibition” and the “inhibition of HIV replication in resting T cells” value ([2]; 600 nM) was “Complete inhibition”.
